In patent publication US8987250B2 (Gilead Sciences, Inc., priority 2012, dated 2015):
pEC50: −log10 of the molar value. Read-outs that look alike come from different tables or passages of the source.

System: HIV-IIIb
Experiment: Test A: Antiviral Assay in MT4 Cells
Type: cell-based
Settings: Human immunodeficiency virus 1, IIIB, MT4, 120 h, MT-4 cells infected with HIV-IIIb, 5 days of incubation, CellTiter-Glo, read-out: EC50
Method: The antiviral properties of a compound of the invention may be determined using Test A described below.
Test A: Antiviral Assay in MT4 Cells
For the antiviral assay utilizing MT-4 cells, 0.4 μL of […] test concentration of 3-fold serially diluted compound in DMSO was added to 40 μL of cell growth medium (RPMI 1640, 10% FBS, 1% penicilline/Streptomycine, 1% L-Glutamine, 1% HEPES) in each well of 384-well assay plates (10 concentrations) in quadruplicate.
One mL aliquots of 2×10e6 MT-4 cells were pre-infected for 1 and 3 hours respectively, @ 37° C. with 25 uL (MT4) or of either cell growth medium (mock-infected) or a fresh 1:250 dilution of an HIV-IIIb concentrated ABI stock (0.004m.o.i. for MT4 cells). Infected and uninfected cells were diluted in cell growth medium and 35 uL of 2000 (for MT4) cells was added to each well of the assay plates.
Assay plates were then incubated in a 37° C. incubator. After 5 days of incubation, […] of 2× concentrated CellTiter-Glo™ Reagent (catalog #G7573, Promega Biosciences, Inc., Madison, Wis.) was added to each well of the assay plate. Cell lysis was carried out by incubating at room temperature for 2-3 min and then chemiluminescence was read using the Envision reader (PerkinElmer). […]

Row | SMILES | pEC50 (Table 1) | pEC50 (Table 2)
1 | Cc1cc2nc(-c3ccnc(-c4cnc(O)nc4)c3)sc2c(-c2ccc(Cl)cc2)c1[C@H](OC(C)(C)C)C(=O)O [Compound 134] | 5.49 | –
2 | Cc1cc2nc(-c3ccnc(-c4cnc(N5CCOCC5)nc4)c3)sc2c(-c2ccc(Cl)cc2)c1[C@H](OC(C)(C)C)C(=O)O [Compound 135] | 7.77 | –
3 | Cc1cc2nc(-c3ccnc(-c4cnc(N5CCN(C)CC5)nc4)c3)sc2c(-c2ccc(Cl)cc2)c1[C@H](OC(C)(C)C)C(=O)O [Compound 136] | 7.92 | –
4 | Cc1cc2nc(-c3cccc(-c4cnc5cnn(C)c5c4)c3)sc2c(-c2ccc(Cl)cc2)c1[C@H](OC(C)(C)C)C(=O)O [Compound 137] | 7.68 | –
5 | Cc1cc2nc(-c3ccnc(-c4cnc(C5CCC5)nc4)c3)sc2c(-c2ccc(Cl)cc2)c1[C@H](OC(C)(C)C)C(=O)O [Compound 138] | 7.19 | –
6 | Cc1cc2nc(-c3ccnc(-c4ccc5c(c4)c(C4CC4)nn5C)c3)sc2c(-c2ccc(Cl)cc2)c1[C@H](OC(C)(C)C)C(=O)O [Compound 139] | 7.21 | –
7 | Cc1cc2nc(-c3ccnc(-c4ccc(N5CCN(C)CC5)nc4)c3)sc2c(-c2ccc(Cl)cc2)c1[C@H](OC(C)(C)C)C(=O)O [Compound 140] | 8.30 | –
8 | Cc1cc2nc(-c3cccc(-c4cnc(N(C)C)nc4)c3)sc2c(-c2ccc(Cl)cc2)c1[C@H](OC(C)(C)C)C(=O)O [Compound 142] | 7.32 | –
9 | COc1ncc(-c2cccc(-c3nc4cc(C)c([C@H](OC(C)(C)C)C(=O)O)c(-c5ccc(Cl)cc5)c4s3)c2)cn1 [Compound 143] | 7.62 | –
10 | Cc1cc2nc(-c3cccc(-c4cnc(O)nc4)c3)sc2c(-c2ccc(Cl)cc2)c1[C@H](OC(C)(C)C)C(=O)O [Compound 144] | 5.58 | –
11 | Cc1cc2nc(-c3cccc(-c4cn(C)nc4C)c3)sc2c(-c2ccc(Cl)cc2)c1[C@H](OC(C)(C)C)C(=O)O [Compound 145] | 7.47 | –
12 | Cc1cc2nc(-c3cccc(-c4cnn(C5CCCC5)c4)c3)sc2c(-c2ccc(Cl)cc2)c1[C@H](OC(C)(C)C)C(=O)O [Compound 146] | 7.04 | –
13 | Cc1cc2nc(-c3cccc(-c4cnn(CC(C)C)c4)c3)sc2c(-c2ccc(Cl)cc2)c1[C@H](OC(C)(C)C)C(=O)O [Compound 147] | 7.23 | –
14 | Cc1cc2nc(-c3ccnc(-c4cncc(C(=O)O)c4)c3)sc2c(-c2ccc(Cl)cc2)c1[C@H](OC(C)(C)C)C(=O)O [Compound 148] | 5.57 | –
15 | Cc1cc2nc(-c3ccnc(-c4cncc(C(N)=O)c4)c3)sc2c(-c2ccc(Cl)cc2)c1[C@H](OC(C)(C)C)C(=O)O [Compound 149] | 6.82 | –
16 | Cc1cc2nc(-c3cccc(-c4cnn(Cc5ccccc5)c4)c3)sc2c(-c2ccc(Cl)cc2)c1[C@H](OC(C)(C)C)C(=O)O [Compound 150] | 7.04 | –
17 | Cc1cc2nc(-c3cccc(-c4cnn(C(C)C)c4)c3)sc2c(-c2ccc(Cl)cc2)c1[C@H](OC(C)(C)C)C(=O)O [Compound 151] | 7.49 | –
18 | Cc1cc2nc(-c3cccc(-c4ccc(N5CCN(C)CC5)nc4)c3)sc2c(-c2ccc(Cl)cc2)c1[C@H](OC(C)(C)C)C(=O)O [Compound 153] | 7.82 | –
19 | Cc1cc2nc(-c3ccnc(-c4cnn(C)c4)c3)sc2c(-c2ccc(Cl)cc2)c1[C@H](OC(C)(C)C)C(=O)O [Compound 154] | 7.80 | –
20 | Cc1cc2nc(-c3ccnc(-c4cccc(C(N)=O)c4)c3)sc2c(-c2ccc(Cl)cc2)c1[C@H](OC(C)(C)C)C(=O)O [Compound 155] | 7.18 | –

Row | SMILES | pEC50 (Table 1) | pEC50 (Table 2)
21 | Cc1cc2nc(-c3ccnc(-c4cccc(C#N)c4)c3)sc2c(-c2ccc(Cl)cc2)c1[C@H](OC(C)(C)C)C(=O)O [Compound 156] | 7.59 | –
22 | Cc1cc2nc(-c3cncc(-c4ccc5c(c4)ncn5C)c3)sc2c(-c2ccc(Cl)cc2)c1[C@H](OC(C)(C)C)C(=O)O [Compound 157] | 7.54 | –
23 | Cc1cc2nc(-c3cccc(-c4ccnn4C)c3)sc2c(-c2ccc(Cl)cc2)c1[C@H](OC(C)(C)C)C(=O)O [Compound 159] | 7.34 | –
24 | COc1ncccc1-c1cccc(-c2nc3cc(C)c([C@H](OC(C)(C)C)C(=O)O)c(-c4ccc(Cl)cc4)c3s2)c1 [Compound 160] | 6.87 | –
25 | COc1ccncc1-c1cccc(-c2nc3cc(C)c([C@H](OC(C)(C)C)C(=O)O)c(-c4ccc(Cl)cc4)c3s2)c1 [Compound 161] | 6.94 | –
26 | Cc1cc2nc(-c3cccc(-c4ccccc4)c3F)sc2c(-c2ccc(Cl)cc2)c1[C@H](OC(C)(C)C)C(=O)O [Compound 162] | 6.46 | –
27 | Cc1cc2nc(-c3cccc(-c4ccc5c(cnn5C)c4)c3)sc2c(-c2ccc3c(c2)C(=O)CCO3)c1[C@H](OC(C)(C)C)C(=O)O [Compound 169] | 7.48 | –
28 | Cc1cc2nc(-c3cccc(-c4ccc5c(cnn5C)c4)c3)sc2c(-c2ccc3c(c2)CCCO3)c1[C@H](OC(C)(C)C)C(=O)O [Compound 170] | 7.46 | –
29 | CCn1cc2cc(-c3cc(-c4nc5cc(C)c([C@H](OC(C)(C)C)C(=O)O)c(-c6ccc(Cl)cc6)c5s4)ccn3)ccc2n1 [Compound 173, (S)-2-tert-butoxy-2-(7-(4-chlorophenyl)-2-(2-(2-ethyl-2H-indazol-5-yl)pyridin-4-yl)-5-methylbenzo[d]thiazol-6-yl)acetic acid] | – | 7.96
30 | CCn1ncc2cc(-c3cc(-c4nc5cc(C)c([C@H](OC(C)(C)C)C(=O)O)c(-c6ccc(Cl)cc6)c5s4)ccn3)ccc21 [Compound 174, (S)-2-tert-butoxy-2-(7-(4-chlorophenyl)-2-(2-(1-ethyl-1H-indazol-5-yl)pyridin-4-yl)-5-methylbenzo[d]thiazol-6-yl)acetic acid] | – | 7.59
31 | Cc1cc2nc(-c3ccnc(-c4ccc5c(cnn5C5CC5)c4)c3)sc2c(-c2ccc(Cl)cc2)c1[C@H](OC(C)(C)C)C(=O)O [Compound 175, (S)-2-tert-butoxy-2-(7-(4-chlorophenyl)-2-(2-(1-cyclopropyl-1H-indazol-5-yl)pyridin-4-yl)-5-methylbenzo[d]thiazol-6-yl)acetic acid] | – | 7.48
32 | Cc1cc2nc(-c3ccnc(-c4ccc5nn(C(F)F)cc5c4)c3)sc2c(-c2ccc(Cl)cc2)c1[C@H](OC(C)(C)C)C(=O)O [Compound 176, (S)-2-tert-butoxy-2-(7-(4-chlorophenyl)-2-(2-(2-(difluoromethyl)-2H-indazol-5-yl)pyridin-4-yl)-5-methylbenzo[d]thiazol-6-yl)acetic acid] | – | 7.74
33 | Cc1cc2nc(-c3ccnc(-c4ccc5c(cnn5C(F)F)c4)c3)sc2c(-c2ccc(Cl)cc2)c1[C@H](OC(C)(C)C)C(=O)O [Compound 177, (S)-2-tert-butoxy-2-(7-(4-chlorophenyl)-2-(2-(1-(difluoromethyl)-1H-indazol-5-yl)pyridin-4-yl)-5-methylbenzo[d]thiazol-6-yl)acetic acid] | – | 7.41
34 | Cc1cc2nc(-c3ccnc(-c4ccc5c(cnn5C(F)(F)F)c4)c3)sc2c(-c2ccc(Cl)cc2)c1[C@H](OC(C)(C)C)C(=O)O [Compound 178, (S)-2-tert-butoxy-2-(7-(4-chlorophenyl)-5-methyl-2-(2-(1-(trifluoromethyl)-1H-indazol-5-yl)pyridin-4-yl)benzo[d]thiazol-6-yl)acetic acid] | – | 7.05
35 | Cc1cc2nc(-c3ccnc(-c4ccc5c(cnn5C5CNC5)c4)c3)sc2c(-c2ccc(Cl)cc2)c1[C@H](OC(C)(C)C)C(=O)O [Compound 179, (S)-2-(2-(2-(1-(azetidin-3-yl)-1H-indazol-5-yl)pyridin-4-yl)-7-(4-chlorophenyl)-5-methylbenzo[d]thiazol-6-yl)-2-tert-butoxyacetic acid] | – | 7.14
36 | Cc1cc2nc(-c3ccnc(-c4ccc5c(cnn5C)n4)c3)sc2c(-c2ccc(Cl)cc2)c1[C@H](OC(C)(C)C)C(=O)O [Compound 180, (S)-2-tert-butoxy-2-(7-(4-chlorophenyl)-5-methyl-2-(2-(1-methyl-1H-pyrazolo[4,3-b]pyridin-5-yl)pyridin-4-yl)benzo[d]thiazol-6-yl)acetic acid] | – | 8.30
37 | Cc1cc2c(c(-c3ccc(Cl)cc3)c1[C@H](OC(C)(C)C)C(=O)O)n(C1CCN(C)CC1)c(=O)n2C [Compound 181, (S)-2-tert-butoxy-2-(4-(4-chlorophenyl)-1,6-dimethyl-3-(1-methylpiperidin-4-yl)-2-oxo-2,3-dihydro-1H-benzo[d]imidazol-5-yl)acetic acid] | – | 7.57
38 | Cc1cc2nc(-c3cccn(-c4ccc5c(cnn5C)c4)c3=O)sc2c(-c2ccc(Cl)cc2)c1[C@H](OC(C)(C)C)C(=O)O [Compound 182, (S)-2-tert-butoxy-2-(7-(4-chlorophenyl)-5-methyl-2-(1-(1-methyl-1H-indazol-5-yl)-2-oxo-1,2-dihydropyridin-3-yl)benzo[d]thiazol-6-yl)acetic acid] | – | 7.10
39 | Cc1cc2nc(-c3ccnc(-c4ccc5c(c4)n(C)c(=O)n5C)c3)sc2c(-c2ccc(Cl)cc2)c1[C@H](OC(C)(C)C)C(=O)O [Compound 183, (S)-2-tert-butoxy-2-(7-(4-chlorophenyl)-2-(2-(1,3-dimethyl-2-oxo-2,3-dihydro-1H-benzo[d]imidazol-5-yl)pyridin-4-yl)-5-methylbenzo[d]thiazol-6-yl)acetic acid] | – | 7.74
